Source: patent US9969737B2, “Fluorescent carbapenems” (Hans Rudolf Pfaendler, priority 2010, dated 2018)

Assays:
[1] = comparison; cited from earlier work
[2] = test system: Pseudomonas aeruginosa (IMP, Heidelberg); experiment: Detection of carbapenemases during incubation in Mueller-Hinton-Broth; assay type: cell-based; details: McFarland 0.5, 100 μg, over night at 37° C.
Experimental: (§1) Detection of carbapenemases by fluorogenic potassium-(4S,5R,6S)-3-(4-acetyl-phenyl)-6-((1′R)-hydroxy-ethyl)-4-methyl-7-oxo-1-aza-bicyclo[3.2.0]hept-2-ene-2-carboxylate during incubation
(§2) Bacterial strains Escherichia coli (ESBL-1, Heidelberg), Escherichia coli (ESBL-2, Heidelberg), Escherichia coli (Oxa-48), Klebsiella pneumoniae (KPC-2, Heidelberg) Klebsiella pneumoniae (VIM-1, Heidelberg), Pseudomonas aeruginosa (GES-2, Heidelberg), Pseudomonas aeruginosa (IMP, Heidelberg) and Pseudomonas aeruginosa (VIM-2, Heidelberg) were grown over night at 37° C. in Mueller-Hinton-Broth (10 ml). To each sample (1 ml, McFarland 0.5) was added fluorogenic carbapenem (100 μg).

[3] = test system: Klebsiella pneumoniae (KPC-2, Heidelberg); experiment: as above; assay type: cell-based; details: McFarland 0.5, 100 μg, over night at 37° C.
Experimental: as §1, §2

[4] = test system: Pseudomonas aeruginosa (VIM-2, Heidelberg); experiment: as above; assay type: cell-based; details: McFarland 0.5, 100 μg, over night at 37° C.
Experimental: as §1, §2

[5] = test system: Escherichia coli (ESBL-1, Heidelberg); experiment: as above; assay type: cell-based; details: ESBL-producer, McFarland 0.5, 100 μg, over night at 37° C.
Experimental: as §1, §2

[6] = test system: Pseudomonas aeruginosa (GES-2, Heidelberg); experiment: as above; assay type: cell-based; details: McFarland 0.5, 100 μg, over night at 37° C.
Experimental: as §1, §2

[7] = test system: Escherichia coli (ESBL-2, Heidelberg); experiment: as above; assay type: cell-based; details: ESBL-producer, McFarland 0.5, 100 μg, over night at 37° C.
Experimental: as §1, §2

[8] = test system: Klebsiella pneumoniae (VIM-1, Heidelberg); experiment: as above; assay type: cell-based; details: McFarland 0.5, 100 μg, over night at 37° C.
Experimental: as §1, §2

[9] = test system: Escherichia coli (Oxa-48); experiment: as above; assay type: cell-based; details: McFarland 0.5, 100 μg, over night at 37° C.
Experimental: as §1, §2

Oxa-48-carbapenemases = target: T1, Oxa-48-carbapenemases (Klebsiella pneumoniae, UniProt Q6XEC0); experiment: Detection of inducible (Oxa-type) carbapenemases after sonication; assay type: biochemical, Escherichia coli
T1 construct: endogenous in cells; host or cells: Escherichia coli strain (producing Oxa-48, Heidelberg), with or without imipenem induction, lysed by sonication
T1 sequence (Q6XEC0 23-265 limits assumed): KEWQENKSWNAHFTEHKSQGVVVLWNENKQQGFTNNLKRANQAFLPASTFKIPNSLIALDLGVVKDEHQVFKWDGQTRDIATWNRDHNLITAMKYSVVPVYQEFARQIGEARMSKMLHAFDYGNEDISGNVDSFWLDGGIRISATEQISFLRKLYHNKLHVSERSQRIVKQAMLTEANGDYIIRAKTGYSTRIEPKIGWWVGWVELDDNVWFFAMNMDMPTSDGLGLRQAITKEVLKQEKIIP
Experimental: Detection of inducible (Oxa-type) carbapenemases of Escherichia coli by fluorogenic potassium-(4S,5R,6S)-3-(4-acetyl-phenyl)-6-((1′R)-hydroxy-ethyl)-4-methyl-7-oxo-1-aza-bicyclo[3.2.0]hept-2-ene-2-carboxylate after physical disruption by sonication
Bacterial strain Escherichia cog (producing Oxa-48, Heidelberg) was grown over night at 37° C. (220 rpm) in Mueller-Hinton-Broth (10 ml) using a 45-ml-Falcon tube. A sample (1 ml, McFarland 10) was diluted in Mueller-Hinton-Broth (10 ml) and incubated with Imipenem (2 μg/ml) for 4 h using a 45-ml-Falcon tube. After centrifugation at 13.000 rpm (2 min, 1 ml for analytical studies), the sample was washed once with PBS (1 ml) and resuspended in PBS (500 μl). Subsequently the cells were lysed by sonication with a Bandelin Sonopuls (5×15 s), pulsed at 80% max. power. Further PBS (500 μl) and fluorogenic carbapenem (100 μg) were added.

[10] = test system: Klebsiella pneumoniae (KPC-2, Heidelberg); experiment: Detection of carbapenemases during chemical lysis; assay type: biochemical; details: McFarland 10 in detergent buffer solution, 100 μg, 6 h at 37° C.
Experimental: (§3) Detection of carbapenemases by fluorogenic potassium-(4S,5R,6S)-3-(4-acetyl-phenyl)-6-((1′R)-hydroxy-ethyl)-4-methyl-7-oxo-1-aza-bicyclo[3.2.0]hept-2-ene-2-carboxylate during chemical lysis
(§4) Bacterial strains Pseudomonas aeruginosa DSM 1117 (no resistance), Pseudomonas aeruginosa (VIM-2, Heidelberg) and Klebsiella pneumoniae (KPC-2, Heidelberg) were incubated over night at 37° C. on Mueller-Hinton-Agar plates. A sample of each strain was suspended (McFarland 10) in primary-amine-free buffer solution (1 ml) of a detergent from Merck (Germany). Fluorogenic carbapenem (100 μg) was added.

[11] = test system: Pseudomonas aeruginosa (VIM-2, Heidelberg); experiment: Detection of carbapenemases during chemical lysis; assay type: biochemical; details: McFarland 10 in detergent buffer solution, 100 μg, 6 h at 37° C.
Experimental: as §3, §4

[12] = test system: Pseudomonas aeruginosa DSM 1117 (no resistance); experiment: Detection of carbapenemases during chemical lysis; assay type: biochemical; details: McFarland 10 in detergent buffer solution, 100 μg, 6 h at 37° C.
Experimental: as §3, §4

[13] = target: T2, Klebsiella pneumoniae carbapenemases (KPC), KPC-2 (Klebsiella pneumoniae, UniProt Q9F663); experiment: Detection of KPC carbapenemase by fluorogenic carbapenem after physical disruption by sonication; assay type: biochemical; details: cells lysed by sonication, PBS, 100 μg carbapenem, room temperature for 5 min
T2 construct: endogenous in cells; host or cells: Klebsiella pneumoniae clinical strain (KPC-2, Heidelberg), lysed by sonication
T2 sequence (Q9F663 25-293 limits assumed): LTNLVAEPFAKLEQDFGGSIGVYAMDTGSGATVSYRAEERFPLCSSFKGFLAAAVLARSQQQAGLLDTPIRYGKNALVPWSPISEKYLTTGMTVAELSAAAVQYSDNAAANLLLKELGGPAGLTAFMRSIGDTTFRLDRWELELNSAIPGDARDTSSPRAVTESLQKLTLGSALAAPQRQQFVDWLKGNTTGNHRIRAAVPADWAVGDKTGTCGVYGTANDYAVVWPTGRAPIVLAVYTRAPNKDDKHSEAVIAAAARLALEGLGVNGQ
Experimental: Detection of Klebsiella pneumoniae carbapenemases (KPC) by fluorogenic potassium-(4S,5R,6S)-3-(4-acetyl-phenyl)-6-((1′R)-hydroxy-ethyl)-4-methyl-7-oxo-1-aza-bicyclo[3.2.0]hept-2-ene-2-carboxylate after physical disruption by sonication
Bacterial strain Klebsiella pneumoniae (producing KPC-2, Heidelberg) was grown over night at 37° C. (220 rpm) in Mueller-Hinton-Broth (10 ml) using a 45-ml-Falcon tube, harvested by centrifugation at 13.000 rpm (2 min, 1 ml for analytical studies, McFarland 10), washed once with PBS (1 ml), and resuspended in PBS (500 μl). Subsequently the cells were lysed by sonication with a Bandelin Sonopuls (5×15 s), pulsed at 80% max. power. Further PBS (500 μl) and fluorogenic carbapenem (100 μg) were added.

[14] = test system: Pseudomonas aeruginosa (IMP, Heidelberg); experiment: Detection of carbapenemases during optimized incubation; assay type: cell-based; details: pre-incubated 6 h at 37° C. (220 rpm), 100 μg, over night at 37° C.
Experimental: (§5) Detection of carbapenemases by fluorogenic potassium-(4S,5R,6S)-3-(4-acetyl-phenyl)-6-((1′R)-hydroxy-ethyl)-4-methyl-7-oxo-1-aza-bicyclo[3.2.0]hept-2-ene-2-carboxylate during optimized incubation
as §2, with “Heidelberg),” for “Heidelberg) and”, “incubated for 6 h” for “grown over night”, “C. (220 rpm)” for “C.”, “ml) using 45-ml-Falcon-tubes.” for “ml).”, “ml)” for “ml, McFarland 0.5)”, “μg) using 15-ml-Falcon-tubes.” for “μg).”

[15] = test system: Klebsiella pneumoniae (KPC-2, Heidelberg); experiment: as above; assay type: cell-based; details: pre-incubated 6 h at 37° C. (220 rpm), 100 μg, over night at 37° C.
Experimental: as §5
as §2, with “Heidelberg),” for “Heidelberg) and”, “incubated for 6 h” for “grown over night”, “C. (220 rpm)” for “C.”, “ml) using 45-ml-Falcon-tubes.” for “ml).”, “ml)” for “ml, McFarland 0.5)”, “μg) using 15-ml-Falcon-tubes.” for “μg).”

[16] = test system: Pseudomonas aeruginosa (VIM-2, Heidelberg); experiment: as above; assay type: cell-based; details: pre-incubated 6 h at 37° C. (220 rpm), 100 μg, over night at 37° C.
Experimental: as §5
as §2, with “Heidelberg),” for “Heidelberg) and”, “incubated for 6 h” for “grown over night”, “C. (220 rpm)” for “C.”, “ml) using 45-ml-Falcon-tubes.” for “ml).”, “ml)” for “ml, McFarland 0.5)”, “μg) using 15-ml-Falcon-tubes.” for “μg).”

[17] = test system: Escherichia coli (ESBL-1, Heidelberg); experiment: as above; assay type: cell-based; details: ESBL-producer, pre-incubated 6 h at 37° C. (220 rpm), 100 μg, over night at 37° C.
Experimental: as §5
as §2, with “Heidelberg),” for “Heidelberg) and”, “incubated for 6 h” for “grown over night”, “C. (220 rpm)” for “C.”, “ml) using 45-ml-Falcon-tubes.” for “ml).”, “ml)” for “ml, McFarland 0.5)”, “μg) using 15-ml-Falcon-tubes.” for “μg).”

[18] = test system: Pseudomonas aeruginosa (GES-2, Heidelberg); experiment: as above; assay type: cell-based; details: pre-incubated 6 h at 37° C. (220 rpm), 100 μg, over night at 37° C.
Experimental: as §5
as §2, with “Heidelberg),” for “Heidelberg) and”, “incubated for 6 h” for “grown over night”, “C. (220 rpm)” for “C.”, “ml) using 45-ml-Falcon-tubes.” for “ml).”, “ml)” for “ml, McFarland 0.5)”, “μg) using 15-ml-Falcon-tubes.” for “μg).”

[19] = test system: Escherichia coli (ESBL-2, Heidelberg); experiment: as above; assay type: cell-based; details: ESBL-producer, pre-incubated 6 h at 37° C. (220 rpm), 100 μg, over night at 37° C.
Experimental: as §5
as §2, with “Heidelberg),” for “Heidelberg) and”, “incubated for 6 h” for “grown over night”, “C. (220 rpm)” for “C.”, “ml) using 45-ml-Falcon-tubes.” for “ml).”, “ml)” for “ml, McFarland 0.5)”, “μg) using 15-ml-Falcon-tubes.” for “μg).”

[20] = test system: Klebsiella pneumoniae (VIM-1, Heidelberg); experiment: as above; assay type: cell-based; details: pre-incubated 6 h at 37° C. (220 rpm), 100 μg, over night at 37° C.
Experimental: as §5
as §2, with “Heidelberg),” for “Heidelberg) and”, “incubated for 6 h” for “grown over night”, “C. (220 rpm)” for “C.”, “ml) using 45-ml-Falcon-tubes.” for “ml).”, “ml)” for “ml, McFarland 0.5)”, “μg) using 15-ml-Falcon-tubes.” for “μg).”

[21] = test system: Escherichia coli (Oxa-48); experiment: as above; assay type: cell-based; details: pre-incubated 6 h at 37° C. (220 rpm), 100 μg, over night at 37° C.
Experimental: as §5
as §2, with “Heidelberg),” for “Heidelberg) and”, “incubated for 6 h” for “grown over night”, “C. (220 rpm)” for “C.”, “ml) using 45-ml-Falcon-tubes.” for “ml).”, “ml)” for “ml, McFarland 0.5)”, “μg) using 15-ml-Falcon-tubes.” for “μg).”

[22] = target: T2, Klebsiella pneumoniae carbapenemases (KPC), KPC-2; experiment: Detection of KPC carbapenemase during sonication with glass beads; assay type: biochemical; details: sonication with glass beads in ultrasound bath, 100 μg, treatment for 45 min
Experimental: Detection of Klebsiella pneumoniae carbapenemases (KPC) by fluorogenic potassium-(4S,5R,6S)-3-(4-acetyl-phenyl)-6-((1′R)-hydroxy-ethyl)-4-methyl-7-oxo-1-aza-bicyclo[3.2.0]hept-2-ene-2-carboxylate during physical disruption by sonication with glass beads
Bacterial strain Klebsiella pneumoniae (producing KPC-2, Heidelberg) was grown over night at 37° C. in Mueller-Hinton-Broth (10 ml). To a sample (1 ml, McFarland 0.5) were added fluorogenic carbapenem (100 μg) and glass beads (100 mg, Sigma-Aldrich, G9018, 150-212 μm, unwashed) using a 5-ml-glass-tube with a plane bottom. The cells were lysed by sonication with a commercial available ultrasound bath.

[23] = test system: Pseudomonas aeruginosa (IMP, Heidelberg); experiment: Detection of metallo-carbapenemases in PBS during incubation; assay type: cell-based; details: 100 μg, five drops inoculum McFarland 0.5, over night at 37° C.
Experimental: (§6) Detection of metallo-carbapenemases by fluorogenic potassium-(4S,5R,6S)-3-(4-acetyl-phenyl)-6-((1′R)-hydroxy-ethyl)-4-methyl-7-oxo-1-aza-bicyclo[3.2.0]hept-2-ene-2-carboxylate in PBS during incubation
(§7) Bacterial strains Klebsiella pneumoniae (VIM-1, Heidelberg) and Pseudomonas aeruginosa (IMP, Heidelberg) were grown over night at 37° C. in Mueller-Hinton-Broth (10 ml). To each PBS (1 ml) of fluorogenic carbapenem (100 μg) were added five drops of corresponding inoculum (McFarland 0.5).

[24] = test system: Klebsiella pneumoniae (VIM-1, Heidelberg); experiment: as above; assay type: cell-based; details: 100 μg, five drops inoculum McFarland 0.5, over night at 37° C.
Experimental: as §6, §7

Green Fluorescent Protein
Stokes shift [1]: 114 nm

potassium-(4S,5R,6S)-3-(4-acetyl-phenyl)-6-((1′R)-hydroxy-ethyl)-4-methyl-7-oxo-1-aza-bicyclo[3.2.0]hept-2-ene-2-carboxylate [Example 1]
disappearance of the green-yellow fluorescence colour (UV light λ=366 nm) [2]: disappearance of the green-yellow fluorescence colour
disappearance of the green-yellow fluorescence colour (UV light λ=366 nm) [3]: disappearance of the green-yellow fluorescence colour
disappearance of the green-yellow fluorescence colour (UV light λ=366 nm) [4]: disappearance of the green-yellow fluorescence colour
change in colour (fluorescence, UV light λ=366 nm) [5]: did not show any change in colour
disappearance of the green-yellow fluorescence colour (UV light λ=366 nm) [6]: disappearance of the green-yellow fluorescence colour
change in colour (fluorescence, UV light λ=366 nm) [7]: did not show any change in colour
disappearance of the green-yellow fluorescence colour (UV light λ=366 nm) [8]: disappearance of the green-yellow fluorescence colour
disappearance of the green-yellow fluorescence colour (UV light λ=366 nm) [9]: disappearance of the green-yellow fluorescence colour
disappearance of the green-yellow fluorescence colour (UV light λ=366 nm) (Oxa-48-carbapenemases; induced with Imipenem (2 μg/ml) for 4 h, lysed by sonication, PBS, room temperature for 5 min): disappearance of the green-yellow fluorescence colour
change in fluorescence colour (Oxa-48-carbapenemases; non-induced sample, within 30 minutes): did not show any change in fluorescence colour
disappearance of the green-yellow fluorescence colour (λ=366 nm) [10]: disappearance of the green-yellow fluorescence colour
disappearance of the green-yellow fluorescence colour (λ=366 nm) [11]: disappearance of the green-yellow fluorescence colour
change in fluorescence colour (λ=366 nm) [12]: did not show any change in fluorescence colour
disappearance of the green-yellow fluorescence colour (UV light λ=366 nm) [13]: disappearance of the green-yellow fluorescence colour
disappearance of the green-yellow fluorescence colour (λ=366 nm) [14]: disappearance of the green-yellow fluorescence colour
disappearance of the green-yellow fluorescence colour (λ=366 nm) [15]: disappearance of the green-yellow fluorescence colour
disappearance of the green-yellow fluorescence colour (λ=366 nm) [16]: disappearance of the green-yellow fluorescence colour
change in fluorescence colour (λ=366 nm) [17]: did not show any change in fluorescence colour
disappearance of the green-yellow fluorescence colour (λ=366 nm) [18]: disappearance of the green-yellow fluorescence colour
change in fluorescence colour (λ=366 nm) [19]: did not show any change in fluorescence colour
disappearance of the green-yellow fluorescence colour (λ=366 nm) [20]: disappearance of the green-yellow fluorescence colour
disappearance of the green-yellow fluorescence colour (λ=366 nm) [21]: disappearance of the green-yellow fluorescence colour
disappearance of the green-yellow fluorescence colour (λ=366 nm) [22]: disappearance of the green-yellow fluorescence colour
disappearance of the green-yellow fluorescence colour (UV light λ=366 nm) [23]: disappearance of the green-yellow fluorescence colour
disappearance of the green-yellow fluorescence colour (UV light λ=366 nm) [24]: disappearance of the green-yellow fluorescence colour
